# Source: ChEMBL document CHEMBL3885861, “Open TG-GATES”
# Species: Rattus norvegicus
# Assay: Open TG-GATES - Regimen: Single
# Format: toxicity, organism-based, Sprague-Dawley
# Parameters: regimen Single, gender Male, age 6 weeks
# Conditions: in vivo, po, 15 mg/kg, route gavage, dose level Low; for APTT / Bas / Eos / Fbg / Hb / Ht / Lym / MCH / MCHC / MCV / Mono / Neu / PT / Plat / RBC / Ret / WBC: tissue Blood; for KIDNEY_L / KIDNEY_R / KIDNEY_TOTAL: tissue Kidney; for LIVER: tissue Liver; for A/G / ALP / ALT / AST / BUN / CRE / Ca / Cl / DBIL / GLC / IP / K / LDH / Na / PL / RALB / TBIL / TC / TG / TP / gamma-GTP: tissue Plasma
smiles,measurement,setting,value
CC(C)C(=O)Nc1ccc([N+](=O)[O-])c(C(F)(F)F)c1 [FLUTAMIDE],TERMINAL_BW,3 h,209 g
same,APTT,3 h,19 s
same,Bas,3 h,0%
same,Eos,3 h,0.8%
same,Fbg,3 h,219.6 mg/dL
same,Hb,3 h,13.5 g/dL
same,Ht,3 h,39.7%
same,Lym,3 h,80%
same,MCH,3 h,22 pg
same,MCHC,3 h,33.9%
same,MCV,3 h,64.6 fL
same,Mono,3 h,3%
same,Neu,3 h,14.6%
same,PT,3 h,12.6 s
same,Plat,3 h,128.6 x10_4/uL
same,RBC,3 h,615.6 x10_4/ul
same,Ret,3 h,7.5%
same,WBC,3 h,110 x10_2/uL
same,KIDNEY_L,3 h,0.9 g
same,KIDNEY_R,3 h,0.9 g
same,KIDNEY_TOTAL,3 h,1.8 g
same,LIVER,3 h,9.3 g
same,A/G,3 h,1.7
same,ALP,3 h,1106 IU/L
same,ALT,3 h,39 IU/L
same,AST,3 h,69.6 IU/L
same,BUN,3 h,12 mg/dL
same,CRE,3 h,0.4 mg/dL
same,Ca,3 h,11 mg/dL
same,Cl,3 h,103 meq/L
same,DBIL,3 h,0.2 mg/dL
same,GLC,3 h,212.6 mg/dL
same,IP,3 h,9.8 mg/dL
same,K,3 h,3.7 meq/L
same,LDH,3 h,187.2 IU/L
same,Na,3 h,140.4 meq/L
same,PL,3 h,177.2 mg/dL
same,RALB,3 h,3.5 g/dL
same,TBIL,3 h,0.3 mg/dL
same,TC,3 h,87.8 mg/dL
same,TG,3 h,127 mg/dL
same,TP,3 h,5.6 g/dL
same,gamma-GTP,3 h,1.2 IU/L
same,TERMINAL_BW,6 h,207.2 g
same,APTT,6 h,19.3 s
same,Bas,6 h,0%
same,Eos,6 h,0.8%
same,Fbg,6 h,228.6 mg/dL
same,Hb,6 h,13.3 g/dL
same,Ht,6 h,39.1%
same,Lym,6 h,78.2%
same,MCH,6 h,21.8 pg
same,MCHC,6 h,34%
same,MCV,6 h,63.9 fL
same,Mono,6 h,3.6%
same,Neu,6 h,16.8%
same,PT,6 h,12.7 s
same,Plat,6 h,126.9 x10_4/uL
same,RBC,6 h,611.2 x10_4/ul
same,Ret,6 h,7.5%
same,WBC,6 h,103.4 x10_2/uL
same,KIDNEY_L,6 h,0.9 g
same,KIDNEY_R,6 h,0.9 g
same,KIDNEY_TOTAL,6 h,1.8 g
same,LIVER,6 h,9.3 g
same,A/G,6 h,1.7
same,ALP,6 h,1000.8 IU/L
same,ALT,6 h,37 IU/L
same,AST,6 h,69.6 IU/L
same,BUN,6 h,8.8 mg/dL
same,CRE,6 h,0.3 mg/dL
same,Ca,6 h,10.6 mg/dL
same,Cl,6 h,103.2 meq/L
same,DBIL,6 h,0.1 mg/dL
same,GLC,6 h,194.8 mg/dL
same,IP,6 h,9.7 mg/dL
same,K,6 h,4 meq/L
same,LDH,6 h,154 IU/L
same,Na,6 h,140 meq/L
same,PL,6 h,159.2 mg/dL
same,RALB,6 h,3.5 g/dL
same,TBIL,6 h,0.2 mg/dL
same,TC,6 h,88.2 mg/dL
same,TG,6 h,53.8 mg/dL
same,TP,6 h,5.6 g/dL
same,gamma-GTP,6 h,1.2 IU/L
same,TERMINAL_BW,9 h,204.9 g
same,APTT,9 h,18 s
same,Bas,9 h,0%
same,Eos,9 h,1%
same,Fbg,9 h,213.6 mg/dL
same,Hb,9 h,13.6 g/dL
same,Ht,9 h,39.8%
same,Lym,9 h,77.2%
same,MCH,9 h,21.8 pg
same,MCHC,9 h,34.2%
same,MCV,9 h,63.6 fL
same,Mono,9 h,3.6%
same,Neu,9 h,17.6%
same,PT,9 h,13 s
same,Plat,9 h,121.6 x10_4/uL
same,RBC,9 h,624.8 x10_4/ul
same,Ret,9 h,7.7%
same,WBC,9 h,91.2 x10_2/uL
same,KIDNEY_L,9 h,0.9 g
same,KIDNEY_R,9 h,0.9 g
same,KIDNEY_TOTAL,9 h,1.9 g
same,LIVER,9 h,8.4 g
same,A/G,9 h,1.6
same,ALP,9 h,967.8 IU/L
same,ALT,9 h,31.8 IU/L
same,AST,9 h,62.2 IU/L
same,BUN,9 h,10.6 mg/dL
same,CRE,9 h,0.3 mg/dL
same,Ca,9 h,10.3 mg/dL
same,Cl,9 h,103.8 meq/L
same,DBIL,9 h,0.082 mg/dL
same,GLC,9 h,207.8 mg/dL
same,IP,9 h,9.8 mg/dL
same,K,9 h,3.7 meq/L
same,LDH,9 h,182.2 IU/L
same,Na,9 h,141.8 meq/L
same,PL,9 h,131.4 mg/dL
same,RALB,9 h,3.4 g/dL
same,TBIL,9 h,0.1 mg/dL
same,TC,9 h,69.8 mg/dL
same,TG,9 h,45.4 mg/dL
same,TP,9 h,5.6 g/dL
same,gamma-GTP,9 h,0.8 IU/L
same,TERMINAL_BW,24 h,218.9 g
same,APTT,24 h,17.6 s
same,Bas,24 h,0%
same,Eos,24 h,1%
same,Fbg,24 h,212 mg/dL
same,Hb,24 h,13.6 g/dL
same,Ht,24 h,40.3%
same,Lym,24 h,78.6%
same,MCH,24 h,22 pg
same,MCHC,24 h,33.8%
same,MCV,24 h,64.9 fL
same,Mono,24 h,3.8%
same,Neu,24 h,16%
same,PT,24 h,12.5 s
same,Plat,24 h,125.4 x10_4/uL
same,RBC,24 h,621.2 x10_4/ul
same,Ret,24 h,6.6%
same,WBC,24 h,79.6 x10_2/uL
same,KIDNEY_L,24 h,0.9 g
same,KIDNEY_R,24 h,1 g
same,KIDNEY_TOTAL,24 h,1.9 g
same,LIVER,24 h,10.7 g
same,A/G,24 h,1.7
same,ALP,24 h,981 IU/L
same,ALT,24 h,39 IU/L
same,AST,24 h,72.2 IU/L
same,BUN,24 h,13.8 mg/dL
same,CRE,24 h,0.4 mg/dL
same,Ca,24 h,10.4 mg/dL
same,Cl,24 h,104.6 meq/L
same,DBIL,24 h,0.094 mg/dL
same,GLC,24 h,205.6 mg/dL
same,IP,24 h,7.1 mg/dL
same,K,24 h,3.8 meq/L
same,LDH,24 h,155.2 IU/L
same,Na,24 h,141.8 meq/L
same,PL,24 h,146 mg/dL
same,RALB,24 h,3.5 g/dL
same,TBIL,24 h,0.2 mg/dL
same,TC,24 h,81.2 mg/dL
same,TG,24 h,83.4 mg/dL
same,TP,24 h,5.5 g/dL
same,gamma-GTP,24 h,1 IU/L
